A melting point compilation (Tetko et al.; mined from patent text by program, amines drawn as free bases though some values may be those of a salt)

Structure (SMILES)	melting point
COc1cc(OC)cc(-c2ncn(-c3ccc(C(F)(F)F)cc3)c2-c2ccc(OC)c(O)c2)c1	111 to 113 °C
COC(=O)C1CCC2C3CCC4CC(O)C(Br)CC4(C)C3C(=O)CC12C (stereo unspecified)	205 to 208 °C
O=C(O)c1cc(CCl)ccc1O	144 to 147 °C
CS(=O)(=O)c1nccc(-n2nnc3ccccc32)n1	202 °C
CCOc1cc2c(cc1OCC)C(c1ccccc1)=NCC(=O)N2	233 to 236 °C
O=C(NCCO)c1cccc(-c2ccc3c(c2)N(c2cccc(Cl)c2Cl)CC3)c1	162 to 163 °C
COC(=O)c1ccc2c(c1)SCCCC2=O	63 to 64 °C
NCc1ccccc1C(=O)N[C@H]1CN(S(=O)(=O)O)C1=O	162 to 165 °C
CC(C)C(=O)NN(C)C	94 to 96 °C
CN(C)c1cc(S(=O)(=O)c2ccccc2)cc(Br)n1	128 to 130 °C
O=C(Nc1ccc(Cl)c(Cl)c1)NS(=O)(=O)c1ccc2c(c1)C(=O)CO2	209 to 211 °C
C=CCOc1ccc(OC(C)=O)c2ccc(=O)[nH]c12	142 to 143 °C
COC(=O)c1ccc(OC2=C3N=C4CCCCC4=C3C(Cc3ccc(OC)cc3)C=C2)o1 (stereo unspecified)	79 to 80 °C
C[C@@H](Oc1cncc(C(=O)Nc2ccc(C#N)cc2)c1)c1ccc(F)cc1	151 to 152 °C
COc1ccc2c(c1)c(CC(=O)OC(C)(C)C)c(C)n2C(=O)c1ccc(Cl)cc1	103 to 104 °C
CCCc1nc(NC2CC2)nc(N2CCOCC2)n1	104 °C
Cc1nc2cc3c(cc2c(=O)[nH]1)C(N(C)c1ccc(C(=O)NC(CCC(=O)NC(C(=O)O)c2ccc(CC(=O)O)cc2)C(=O)O)c(F)c1)CC3 (stereo unspecified)	175 to 177 °C
Cc1[nH]c2ccc(CCN3CCCCC3)cc2c1C(=O)OCc1ccccc1	159 to 161 °C
N#Cc1ccccc1Sc1ccc([N+](=O)[O-])cc1	151 to 153 °C
Cc1nnc(-c2ccc3occ(-c4ccc(S(C)=O)c(Cl)c4)c3c2)o1 (stereo unspecified)	196 to 197 °C
NC(N)=Nc1nc(-c2ccc(C(=O)NC(=O)c3cccnc3)o2)cs1	217 °C
O=c1c2c(oc3ccccc13)C=C2	68 to 70 °C
CCC1(CC)c2cc(-c3nc4ccccc4s3)ccc2-c2ccc(N(c3ccc(Oc4ccc([N+](=O)[O-])cc4)cc3)c3ccc(Oc4ccc([N+](=O)[O-])cc4)cc3)cc21	223 to 225 °C
CCSc1cc(C)nc(SCC)c1NC(=O)CCCCCCCCSc1nc2ccccc2s1	88 to 92 °C
COc1ccc(OC)c(Cc2cccc(N)c2)c1	81 to 84 °C
N#Cc1ccc(CC(=O)c2c(O)c3cccnc3n(-c3ccccc3)c2=O)cc1	227 to 230 °C

Structure (SMILES)	melting point
CCOC(=O)c1c(Cl)nn(C)c1S(N)(=O)=O	121 to 123 °C
Cc1nc(-n2cnn(Cc3ccc(C(F)(F)F)cc3)c2=O)sc1C(=O)NCc1cccnc1	156 to 158 °C
CN(SN(CC#N)CC#N)C(=O)Oc1cccc2c1OC(C)(C)C2	94 to 95 °C
CCCCc1nc2ccccn2c(=O)c1-c1ccc(N)cc1	95 to 97 °C
CN(C)Cc1ccccc1C1(c2ccc(Cl)cc2)OC(=O)c2ccccc21 (stereo unspecified)	138 to 140 °C
CCS(=O)(=O)c1ccc(C(=O)NCc2ccc3c(c2)CN(C2CCC(=O)NC2=O)C3=O)cc1 (stereo unspecified)	222 to 224 °C
COc1cc(C=C(C(C)=O)C(C)=O)ccc1O	135 to 137 °C
O=C(Nc1ccc(SCCCCCCCCCCCCC(Cl)(Cl)C(=O)O)cc1)c1ccc(Cl)cc1	167 to 168 °C
CC(=O)C(=O)N[C@H](CO[N+](=O)[O-])Cc1ccccc1	72 to 75 °C
COc1cccc(NC(=O)c2ccccc2C(=O)O)c1	168 to 169 °C
CN1CCC[C@H]1c1ccc(Cl)cc1P(c1cccc2ccccc12)c1cccc2ccccc12	224 to 226 °C
CSCCCCn1c(C)nc2c(N)nc3ccccc3c21	190 to 193 °C
O=C(Nc1ncc[nH]1)c1cnc2c(C(F)(F)F)cccc2c1O	211 °C
OC(CCl)(Cc1ccccc1)c1ccc(-c2ccccc2)cc1 (stereo unspecified)	96 °C
COC(=O)Nc1ccc(O)c(Cl)c1	96 to 98 °C
CC(SCc1cc2cc(C(F)(F)F)ccc2n1S(=O)(=O)c1ccccc1)C(=O)O (stereo unspecified)	120 °C
CC(C(=O)NCCCC(F)(F)F)(c1ccccc1)c1ccccc1	82 °C
FC(F)(F)c1[nH]c(-c2ccc(Cl)cc2)c(Br)c1C(F)(F)F	64.5 to 65 °C
Cc1cc(Oc2ncc(C(F)(F)F)cc2Cl)nn1C(=S)NCc1ccc(Cl)cc1	119 to 121 °C
CC(=O)Nc1nc(N)nnc1-c1cccc(Cl)c1Cl	250 to 252 °C
N#Cc1cnn2c(C(F)(F)F)cc(-c3cccc(Cl)c3)nc12	204 °C
Nc1cc2nc(N)c(-c3ccccc3Cl)cc2cn1	175 °C
COC(=O)C=Cc1cc(OC)ccc1-c1ccccc1	175 to 177 °C
Cc1ccc2c(c1)c(C=O)c(Cl)n2C	120 to 121 °C
CN1Cc2c(C#N)ccc3scc(c23)S1(=O)=O	238 °C
COc1ccc(Oc2c(C)cc([N+](=O)[O-])cc2C)cc1Cc1ccc(F)cc1	105 to 110 °C

Structure (SMILES)	melting point
CCCCCCCCCCCCCCCCCCOc1cc(OCCCOc2cccc(Br)c2)cc(N(CC(=O)OC)CC(=O)OC)c1	48 to 50 °C
COc1cc2c(cc1OC)C(=O)C(C)C(C)O2 (stereo unspecified)	171 to 172 °C
O=C(O)c1cn(C2CC2)c2c(F)c(N3CCC(n4ncnn4)C3)c(F)cc2c1=O (stereo unspecified)	192 to 199 °C
O=c1cnc(-c2ccc(F)c(Br)c2)nn1Cc1ccc(Cl)nc1	138 to 140 °C
O=C(N1CCCC1)C1(Cc2ccccc2)CCN(Cc2ccccc2)CC1	129 °C
O=c1ccsn1Cc1ccccc1	78 to 80 °C
CCCc1nc(NCCOC(C)=O)nc(N2CCOCC2)n1	94 to 95 °C
CC(C)(C)OC(=O)CN1C(=O)[C@@H](NC(=O)OC(C)(C)C)CCc2ccccc21	145 to 147 °C
N#Cc1c(C(F)(F)F)nn(-c2c(Cl)cc(C(F)(F)F)cc2Cl)c1N(C(=O)C1CC1)C(=O)C1CC1	126 to 127 °C
Cc1ccc(C=C(F)C(=O)NC(Cc2ccccc2)C(=O)O)cc1 (stereo unspecified)	163 to 164 °C
CCOc1cc(-c2cc(C(F)(F)F)n3cnc(-c4ccnc(C)c4)c3n2)ccc1C(F)(F)F	177 °C
COC(=O)Cn1nnc(NC(=O)C2c3ccccc3Oc3ccccc32)n1	243 to 244 °C
Cc1cc(O)c2cc(C)c(-c3ccc(Cl)cc3Cl)n2n1	234 to 237 °C
O=S(=O)(N[C@H](CO)C1CCCCC1)c1ccc(Cl)cc1	115 to 118 °C
NC(=O)N(O)Cc1ccc(Cl)s1	138 to 140 °C
CNC1(c2ccccc2)CCC(=O)CC1	32 to 38 °C
O=C1NCCN1Cc1ccc(OCc2ccccc2)cc1	110 to 122 °C
O=C(O)CC1(CC(O)=NO)CCCCCC1	90 to 100 °C
CN1CCN(c2ccc(N)c(C(=O)O)c2)CC1	212 °C
O=C(CC1CCCCC1=O)c1ccc([N+](=O)[O-])cc1 (stereo unspecified)	61 to 63 °C
N#CC(=NOS(=O)(=O)c1ccc(C(=O)Cl)cc1)c1ccccc1	193 to 195 °C
COC(=O)c1nc2nn(-c3ccccc3)c(C)c2c(N)c1C(=O)OC	190 to 191 °C
CCCCc1c(/C=C/C(=O)O)ccc2cc(OC)ccc12	163 to 164 °C
CCOC(=O)c1cc2cc(Br)ccc2[nH]1	160 to 164 °C
COc1cc2c(c(Cl)c1Cl)C(=O)C(C)(c1ccccc1)C2 (stereo unspecified)	161 to 163 °C
O=c1cc(Nc2ccc3c(c2)CCC3)[nH]c(=S)[nH]1	269 to 272 °C

Structure (SMILES)	melting point
COCOc1ccc(C=CC(=O)c2c(O)cc(OC)cc2OC)cc1	104 °C
COc1cc2c3c(c1O)C1(C=CC(=O)C=C1)CC3N(C)CC2 (stereo unspecified)	225 °C
CN1C(=O)C(C(=O)Nc2ccc(Cl)c(C(F)(F)F)c2)S(=O)(=O)c2ccc(Cl)cc21 (stereo unspecified)	220 to 222 °C
N#Cc1c(N2CCN(Cc3ccccc3)CC2)nn2c(-c3ccncc3)ccnc12	193 to 194 °C
C#CC1(Oc2ccc(F)cc2[N+](=O)[O-])CCN(C(=O)Oc2ccccc2)CC1	82 to 83 °C
C#CC1C2=C(c3ccc(OCc4ccccc4)cc3N1C(=O)Oc1ccccc1)C(O[Si](C)(C)C(C)(C)C)CCC2 (stereo unspecified)	76.5 to 78.2 °C
OC(Cn1cncn1)(Cn1cnc(-c2ccc(F)cc2)n1)c1ccc(C(F)(F)F)cc1F (stereo unspecified)	96 to 100 °C
CC(=O)Nc1ccc(Nc2c(NCc3ccco3)cc(C(=O)O)cc2S(=O)(=O)Nc2ccccc2NC(C)=O)cc1	258 °C
Cc1c([N+](=O)[O-])cc(S(F)(F)(F)(F)F)cc1[N+](=O)[O-]	108 to 109 °C
COc1ccc(CNC(=O)C(=O)NCCc2ccccn2)c(C)c1	133 to 134 °C
COC(=O)Cc1cccc(NC(=O)NC2c3cc(C#N)ccc3OC(C)(C)C2O)c1 (stereo unspecified)	72 to 75 °C
CCC1N=NC(c2ccccc2)=C(O)N1C (stereo unspecified)	122 °C
O=C1N/C(=C\C2CC2)C(O)=C1c1ccccc1	167 to 170 °C
CC1CC(C)CN(C(=O)c2ccccc2)C1 (stereo unspecified)	107 to 109 °C
CCn1c(=O)ccc2cnc(Nc3ccccc3)nc21	203 to 204 °C
COc1ccc(S(=O)(=O)Nc2cc(Cl)cc(Cl)c2OC)cc1N1CCNCC1	189 to 190 °C
O=C(Nc1ccccc1)c1c(C(=S)Nc2ccccc2)cccc1-c1ccccc1	150 to 152 °C
CC(C)CN(Cc1ccccc1)c1ncnc2c1ncn2C1CCCCO1 (stereo unspecified)	93 to 95 °C
C=C(C(=O)NS(=O)(=O)c1cccc(C#N)c1)c1ccc(OCCOC)cc1Oc1ncc(C(F)(F)F)cc1Cl	195 to 197 °C
COc1cc(OC)nc(Cc2ccccc2[N+](=O)[O-])n1	92 to 93 °C
Cc1cc(Cn2nnc(C(N)=O)c2N)cc(Cl)c1C(=O)c1ccc(Cl)cc1	205 to 206 °C
CCOC(=O)C(CNC(C)=O)c1cn(C(=O)OCC)c2ccc(OC)cc12 (stereo unspecified)	88 to 90 °C
Cc1nn(C)c2cc(-c3ccc(F)cc3)nc(-c3ccc(S(C)(=O)=O)cc3)c12	228 to 230 °C
